From ChEMBL document CHEMBL4706697, “Structure-based designing and synthesis of 2-phenylchromone derivatives as potent tyrosinase inhibitors: In vitro and in silico studies” (Bioorg Med Chem, 2021) come the findings set out here.

As a reminder, the IC50 is the concentration that gives 50% inhibition.

Molecules are shown by their SMILES.

One test deals with T1, Mushroom tyrosinase (Agaricus bisporus, UniProt O42713+Q00024+C7FF04+C7FF05). Briefly: Inhibition of mushroom tyrosinase.
As to `C=CCc1ccc(OC(=O)COC(=O)/C=C/c2ccc(O)cc2)c(OC)c1`, the IC50 was determined as 3 µM.

In a further test the target is T1, Mushroom tyrosinase. Briefly: Inhibition of mushroom tyrosinase using L-Dopa as substrate preincubated for 10 mins followed by substrate addition and measured after 20 mins.
Molecule `CN(C)c1ccc(-c2cc(=O)c3c(Br)cc(Br)cc3o2)cc1` had a concentration for half-maximal inhibition (IC50) of 0.57 µg/mL.
`Cc1ccc(S(=O)(=O)n2cc(-c3oc4cc(Br)cc(Br)c4c(=O)c3O)c3ccccc32)cc1`: the IC50 is 8.175 µg/mL.
Regarding `Cc1ccc(-c2oc3cc(Br)cc(Br)c3c(=O)c2O)cc1`, the IC50 amounted to 0.126 µg/mL.
On the same count and under the same terms, the result for `O=c1c(O)c(-c2c[nH]c3ccccc23)oc2cc(Br)cc(Br)c12` reads 23.58 µg/mL; that for `O=c1cc(-c2ccc(Cl)cc2)oc2cc(Br)cc(Br)c12`, 4.2 µg/mL; that for `O=c1c(O)c(-c2ccco2)oc2cc(Br)cc(Br)c12`, 2.5 µg/mL.
For `COc1ccc(-c2cc(=O)c3c(Br)cc(Br)cc3o2)cc1OC`, the IC50 was 0.49 µg/mL.
`COc1ccc(-c2oc3cc(Br)cc(Br)c3c(=O)c2O)cc1OC` displayed an IC50 of 0.093 µg/mL.
With `O=c1c(O)c(-c2ccc(F)cc2)oc2cc(Br)cc(Br)c12`, the IC50 amounted to 2.36 µg/mL.
On the same count and under the same terms, the result for `O=c1cc(-c2cccc([N+](=O)[O-])c2)oc2cc(Br)cc(Br)c12` reads 3.28 µg/mL; that for `O=c1c(O)c(-c2cccc3ccccc23)oc2cc(Br)cc(Br)c12`, 0.564 µg/mL.
Same read-out and setting: the same measure for `Cc1ccc(S(=O)(=O)n2cc(-c3cc(=O)c4c(Br)cc(Br)cc4o3)c3ccccc32)cc1`: 22.22 µg/mL; for `Cc1ccc(-c2cc(=O)c3c(Br)cc(Br)cc3o2)c(C)c1`: 11.33 µg/mL; for `CN(C)c1ccc(-c2oc3cc(Br)cc(Br)c3c(=O)c2O)cc1`: 0.5 µg/mL.
The same measure, in the same setting: the same measure for `O=c1cc(-c2ccco2)oc2cc(Br)cc(Br)c12`: 2.07 µg/mL; for `Cc1ccc(-c2cc(=O)c3c(Br)cc(Br)cc3o2)cc1`: 7.2 µg/mL; for `O=c1c(O)c(-c2cccs2)oc2cc(Br)cc(Br)c12`: 3.01 µg/mL.
On to `O=C(O)c1ccc(-c2oc3cc(Br)cc(Br)c3c(=O)c2O)cc1`, for which the IC50 came out at 4.26 µg/mL.
Still for that read-out and setting: the result for `O=c1cc(-c2cccs2)oc2cc(Br)cc(Br)c12` reads 0.68 µg/mL; that for `O=c1c(O)c(-c2ccc(O)cc2)oc2ccccc12`, 0.23 µM.
On to `O=c1cc(-c2ccc(F)cc2)oc2cc(Br)cc(Br)c12`, for which the IC50 turned out to be 20.5 µg/mL.
Take `O=c1cc(-c2cccc3ccccc23)oc2cc(Br)cc(Br)c12`: the IC50 turned out to be 3.41 µg/mL.
On the same count and under the same terms, the result for `O=c1c(O)c(-c2ccc(Cl)cc2)oc2cc(Br)cc(Br)c12` reads 0.71 µg/mL.
On the same count and under the same terms, the result for `Cc1ccc(-c2oc3cc(Br)cc(Br)c3c(=O)c2O)c(C)c1` reads 7.57 µg/mL; that for `O=c1cc(-c2c[nH]c3ccccc23)oc2cc(Br)cc(Br)c12`, 0.22 µg/mL.
The same measure, in the same setting: the same measure for `O=c1c(O)c(-c2ccc([N+](=O)[O-])cc2)oc2cc(Br)cc(Br)c12`: 0.27 µg/mL; for `O=c1c(O)c(-c2cccc([N+](=O)[O-])c2)oc2cc(Br)cc(Br)c12`: 0.15 µg/mL.
`O=c1cc(-c2ccc([N+](=O)[O-])cc2)oc2cc(Br)cc(Br)c12` gave an IC50 of 0.27 µg/mL.
Same read-out and setting: the same measure for `O=C(O)c1ccc(-c2cc(=O)c3c(Br)cc(Br)cc3o2)cc1`: 9.7 µg/mL.

A further test has as its target T1, Mushroom tyrosinase. Briefly: Inhibition of mushroom tyrosinase using L-Dopa as substrate […]. In general terms: In an ELISA, binding on a coated surface is turned into a signal by an enzyme label.
Turning to `CCN1CCN(CC(=O)Nc2ccc3oc(-c4ccc(C(C)(C)C)cc4)nc3c2)CC1`, the half-inhibitory concentration (IC50) came to 8.14 µM.
Molecule `COc1ccc(/C=C2\NC(=S)NC2=O)c(OC)c1` showed an IC50 of 1.07 µM.
The molecule `O=C(O)S[C@H]1N=N[C@@H](NC(=S)Nc2cccc(C(F)(F)F)c2)S1` gave an IC50 of 6.13 µM.
As to `O=C(Nc1cccc(Cl)c1)Nc1ccc2c(c1)S(=O)(=O)NC2=O`, the IC50 worked out at 5.85 µM.
